The results in this text go back to patent US7728146B2, “Enzyme inhibitors” (Probiodrug AG, priority 2006, dated 2010).

The target of series [1] is dipeptidyl peptidase (DP IV) (UniProt P27487). Nature of the series: Determination of IC50 against DP IV (hydrolysis of Gly-Pro-pNA). Format: biochemical, porcine kidney or recombinant human. The note with it: compounds obtained by preparative synthesis. Summed up: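 Porcine kidney or recombinant human DP IV (about 40–50 μU/ml) in HEPES pH 7.6 (I=0.32) with Gly-Pro-pNA at room temperature, 5% DMSO, 11 twofold dilutions from 100 μM final. pNA release at 405 nm over ~18 min; slopes give residual activity versus solvent, IC50 by 4-parameter fit.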

The subject of series [2] is liver cell carcinoma cell line Hep-G2. Kind of series: Cytotoxicity screening and LD50 determination on Hep-G2 (LDH, CytoTox-One). The settings on record: for LD50 Viability HEP-G2 / LD50 cytotox HEP-G2: 8 serial dilutions, highest concentration 1 mM; for Cytotox 100 μM (%) HEPG2 / Viability 100 μM (%) HEP-G2: 24 h; for Cytotox 100 μM (%) HEPG2: LDH activity in cell culture media, lysed untreated cells = 100%; for Viability 100 μM (%) HEP-G2: LDH of lysed cells, untreated control = 100%; for Cytotox 100 μM (%) HEPG2 / Viability 100 μM (%) HEP-G2 / Observed cytotox: 100 μM; for Observed cytotox: Hep-G2, observation of the cells. Format: cell-based. Summed up: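 Hep-G2 cells (50 000/well) precultured 24 h, then compound in DMSO (final 1%) added for 24 h. Screen at 100 μM, 2 μM, 40 nM in triplicate. LDH in medium gave cytotoxicity (untreated 0%, lysed 100%); LDH of lysed cells gave viability. LD50 from 8 serial dilutions, top 1 mM.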

The target of the next series is DP IV (Homo sapiens, UniProt P27487). Nature of the series: DP IV inhibition IC50, parallel-synthesis compounds tested directly following synthesis (without purification). Details: IC50 DP4; other: tested directly following parallel synthesis, without purification; compounds of formula (Ib) from parallel synthesis, tested directly following synthesis. The note with it: DP IV inhibition; compounds of formula (Ib) from parallel synthesis, tested directly following synthesis (without purification); read-out: IC50. Format: biochemical. In a few lines: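 IC50 came from a 4-parameter fit of residual activity (linear 405 nm slopes for pNA release over ~18 min, relative to solvent-only wells). Gly-Pro-pNA was the substrate, cleaved by porcine kidney or recombinant human DP IV at room temperature in HEPES with 5% DMSO; duplicate 1:2 series started at 100 μM final.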

Consider `NCc1c(-c2ccc(Cl)cc2Cl)ncn1Cc1ccsc1` [Example 130b, (4-(2,4-dichlorophenyl)-1-((thiophen-3-yl)methyl)-1H-imidazol-5-yl)methanamine], for which, in series [1], the half-inhibitory concentration (IC50) turned out to be 0.062 µM. Also, in series [2], the “LD50 Viability HEP-G2” value was 0.24 mM and the “LD50 cytotox HEP-G2” value is listed as 0.21 mM.
Consider `NCc1c(-c2ccc(Cl)cc2Cl)ncn1Cc1ccccn1` [Example 39b], for which, at DP IV, the concentration for half-maximal inhibition (IC50) came out at 4.6 µM. In series [1], this compound came in with an IC50 of 0.059 µM. Moreover, in series [2], the “Cytotox 100 μM (%) HEPG2” value stood at 3.9%, the “Viability 100 μM (%) HEP-G2” value is recorded as 115.7%, the Observed cytotox is listed as 20% spheric and the “LD50 Viability HEP-G2” value was found to be 0.80 mM. Further, the “LD50 cytotox HEP-G2” value in series [2] is on record as 0.74 mM.
With `NCc1c(-c2ccc(Cl)cc2Cl)ncn1Cc1ccccc1` [Example 24b, (1-benzyl-4-(2,4-dichlorophenyl)-1H-imidazol-5-yl)methanamine], the half-maximal inhibitory concentration (IC50) on DP IV was 0.9 µM. The concentration for half-maximal inhibition (IC50) in series [1] turned out to be 0.123 µM. In series [2], the “Cytotox 100 μM (%) HEPG2” value is given as 5.9%, the “Viability 100 μM (%) HEP-G2” value was 119.2%, the Observed cytotox turned out to be 10% spheric and the “LD50 Viability HEP-G2” value is listed as 0.20 mM. The “LD50 cytotox HEP-G2” value in series [2] was 0.18 mM.
In the case of `NCc1c(-c2ccc(Cl)cc2Cl)ncn1Cc1cccnc1` [Example 121b, (4-(2,4-dichlorophenyl)-1-((pyridin-3-yl)methyl)-1H-imidazol-5-yl)methanamine], on DP IV, the half-inhibitory concentration (IC50) turned out to be 4.6 µM. Besides, the half-maximal inhibitory concentration (IC50) in series [1] turned out to be 0.083 µM. Further, in series [2], the “Cytotox 100 μM (%) HEPG2” value was determined as 0%, the “Viability 100 μM (%) HEP-G2” value is listed as 104.0%, the “LD50 Viability HEP-G2” value worked out at 1.05 mM and the “LD50 cytotox HEP-G2” value was determined as 0.92 mM.
